The text below walks through data of a melting point compilation (Tetko et al.; mined from patent text by program, amines drawn as free bases though some values may be those of a salt).

The term melting point denotes the temperature, or range, at which the solid turns liquid. `COC(=O)c1c(C)nc(-c2ccccc2)nc1-c1cccc([N+](=O)[O-])c1`: the melting point was in the range of 128 to 130 °C.

As to `COc1ccc(C[C@@H](C(=O)O)[C@@H](O)c2ccc(F)cc2)cc1` (racemic), the melting point was 96 to 98 °C.

Take `O=c1nc(NCCCOc2cccc(CN3CCCCC3)c2)c2ccccc2[nH]1`: the melting point lay in the range of 219 to 221 °C.

`CCOC(=O)c1cc2c(nc1C)C(=Cc1ccc(OC(C)=O)cc1)CCC2` registered a melting point of 112 °C.

On to `CC(Sc1cnn(C(C)(C)C)c(=O)c1Cl)c1ccc(C(C)(C)C)cc1` (single isomer, unassigned; (+)), for which the melting point lay within 102 to 104 °C.

In turn, `CNS(=O)(=O)c1cc(C)oc1CC(=O)O` displayed a melting point of 112 to 113 °C.

For `O=C(C1CCCCC1)N1CC(=NO)NC(=NO)C1`, the melting point was above 260 °C.

For `Cc1c(O)ccc2c(=O)c(-c3ccc(Cl)cc3)coc12`, the melting point worked out at 275 °C.

Turning to `O=[N+]([O-])c1cc(Cn2nnnc2Sc2ccccc2)cc([N+](=O)[O-])c1`, the melting point was in the range of 156 to 158 °C.

`CCCCc1c(C(=O)O)c2ccccc2n1C`: the melting point is 163 to 165 °C.

`Nc1c(Cl)ncnc1Nn1ccc2ccccc21`: the melting point was in the range of 175 to 176 °C.

Turning to `CCCCS(=O)(=O)Nc1ccc(OCc2ccc3ccccc3n2)cc1`, the melting point was 113 °C.

Turning to `O=C(O)c1ccc(OCc2ccc(Cl)cc2)cc1OCc1ccccc1`, the melting point is 150 to 152 °C.

With `CC(=O)N(C)CCCC(=O)OC1c2ccccc2C(=O)N1c1ccc2ccc(Cl)nc2n1` (centres undefined), the melting point was determined as 170 °C.

Consider `CCN(CC)CCn1nc2c3c(c(NCCN4C(=O)c5ccccc5C4=O)ccc31)Sc1cc(OC)ccc1-2`, for which the melting point lay in the range of 171 to 172 °C.

`CCCC(=O)c1cnc2c(OC)cccc2c1Nc1ccc(OC)cc1C` registered a melting point of 161 to 163 °C.

Consider `Cc1c(SCCCSCCc2ccccc2)ccnc1CSc1ccncc1`, for which the melting point fell in the range of 48 to 50 °C.

In turn, `CC(=O)Nc1ccc([N+](=O)[O-])s1` had a melting point of 226 °C.

Consider `OCc1nn(-c2ccc(Br)cc2)c2c1CCCC2`, for which the melting point lay within 126 to 127 °C.

In turn, `CONS(=O)(=O)c1ccc(C(=O)C=Cc2cc(-c3cc4ccccc4n3C)c(OC)cc2OC)cc1` gave a melting point of 214 to 216 °C.

`COc1cc(COc2nn(-c3ccccc3)cc2CC(=O)O)ccc1OCc1nc(-c2ccco2)oc1C` returned a melting point of 179 to 180 °C.

The molecule `CC(C)=CCOc1ccc(C(=O)C=Cc2ccc(C)cc2)c(O)c1` had a melting point of 108 to 109 °C.

As to `CCCCCCC(=O)C=Cc1ccc(OCc2ccccc2)c(OC)c1`, the melting point lay within 78 to 81 °C.

For the molecule `CC(=O)NC(C)Cc1ccc(C=CC(=O)O)cc1` (centres undefined), the melting point lay within 207 to 208 °C.

In turn, `COC(=O)c1ccccc1NC(=O)CN1CCNCC1` returned a melting point of 94 to 96 °C.

Turning to `COc1ccc(-c2cnn3c(N)c(-c4ccc(F)c(Cl)c4)c(C)nc23)cc1`, the melting point was in the range of 224 to 227 °C.

In turn, `CC12C=CC(C1)C(C(N)=O)C2(C(N)=O)c1cccc(Br)c1` (centres undefined) yielded a melting point of 111 to 113 °C.

`CCOC(=O)c1c2ccc(CC(=O)NOCCCN(CC)CC)ccc-2c(C(=O)OCC)c1N` had a melting point of 125 to 127 °C.

In the case of `Cc1nc(C)c(C(=O)Nc2ccc(-n3nc(C4CC4)cc3C3CC3)cc2)s1`, the melting point lay within 98 to 114 °C.

With `COc1cc([N+](=O)[O-])ccc1S(=O)(=O)N1C(=O)C(N)(c2ccccc2Cl)c2cc(Cl)ccc21` (centres undefined), the melting point turned out to be 229 °C.

`CC(C)C[C@@H]1NC(=O)O[C@H]1CCOS(C)(=O)=O` gave a melting point of 99 to 100 °C.

The molecule `O=C1N(Cc2nnc(-c3ccccc3)o2)c2ccccc2C12COc1cc3c(cc12)OCO3` (centres undefined) gave a melting point of 151 to 153 °C.

`NC(N)=NC(=O)Cn1c(Cl)c(Cl)c(Cl)c1Cl` had a melting point of 215 to 217 °C.

For `CC1(C)Nc2cc(F)c(F)cc2-n2cccc21`, the melting point was in the range of 123 to 125 °C.

`CCOC(=O)c1cnn(-c2cc(C(=O)Nc3cc(C(C)(C)C)cc(NS(C)(=O)=O)c3OC)ccc2C)c1` displayed a melting point of 125 to 130 °C.

The molecule `CCN1C(=O)Cc2ccc(C(O)CCl)c(O)c21` (centres undefined) yielded a melting point of 141 to 147 °C.

`Cc1ccc(S(=O)(=O)Cc2c(-c3ccc(Cl)cc3Cl)nn(C)c2O)cc1` had a melting point of 209 °C.

In turn, `O=C(O)CCC(=O)c1ccc(-n2cncn2)cc1` had a melting point of 234 to 235 °C.

The molecule `O=C1CCN(Cc2ccc3ccccc3n2)CC1C(c1ccc(F)cc1)c1ccc(F)cc1` (centres undefined) returned a melting point of 188 to 189 °C.

As to `O=Cc1cn(Cc2ccc(OCc3ccccc3)cc2)nc1-c1ccc(F)cc1`, the melting point lay in the range of 97 to 98 °C.

Molecule `CCCCCCC1=CC(O)(C(Br)Br)N(c2ccccc2)C1=O` (centres undefined) displayed a melting point of 43 to 45 °C.

Consider `C=CCOc1ccc(C)c2c1C(C)(C)C(=O)N2Cc1ccccc1`, for which the melting point fell in the range of 107 to 108 °C.

The molecule `CN(C)C1CCN(c2nc3c(cc2F)c(=O)c(C(=O)O)cn3CCF)C1` (centres undefined) registered a melting point of 247 to 249 °C.

On to `COc1ccc(-c2c3c(cc4ccc5c(c24)OCO5)C(=O)NC3)cc1`, for which the melting point was in the range of 266 to 269 °C.

In turn, `COc1ccc(-n2c(=O)n(OCc3ccccc3)c(=O)c3cc(F)c(N4CCCC4)nc32)cc1` registered a melting point of 186 to 188 °C.

Turning to `COc1ccc(SC(C)(Cc2ccccc2)C(=O)NO)cc1` (centres undefined), the melting point is 88 °C.

In turn, `CSc1ccc(-n2cnc3ccc(-c4nnc(CCc5cccc(C(F)(F)F)c5)o4)cc32)cc1` registered a melting point of 167 to 168 °C.

Regarding `COc1ccc(S(=O)(=O)N(CC(N)=O)c2ccc(Cl)cc2Cc2ccccc2C(F)(F)F)cc1OC`, the melting point is 133 °C.

As to `Fc1ccc2c(c1)C1=NCCN1C(Cl)=N2`, the melting point lay within 209 to 211 °C.

`CCOC(=O)C1=Cc2cccc(C(F)(F)F)c2OCC1` showed a melting point of 57 to 59 °C.

Regarding `NNC1=Nc2ccc(Cl)cc2N(c2ccccc2)C(=O)C1`, the melting point was 91 to 93 °C.

`C1=CC2=c3ccccc3=NC2=C1` yielded a melting point of 143 to 145 °C.

Take `Cc1cc(-c2ccc3c(C(N)=O)nn(-c4ccc(S(N)(=O)=O)cc4)c3c2)ccc1F`: the melting point lay in the range of 300 to 302 °C.

The molecule `COc1ccnc(C(=O)N[C@H]2COC(=O)[C@H](Cc3ccccc3)[C@@H](OCSC)[C@H](C)OC2=O)c1O` returned a melting point of 159 to 160 °C.

`CC(=O)Oc1ccc(C(=O)Oc2ccc(C(=O)O)cc2)cc1`: the melting point is 98 to 100 °C.

In the case of `O=C(c1ccc([N+](=O)[O-])cc1)N1Cc2cccn2-c2ccccc21`, the melting point fell in the range of 174 to 178 °C.

In turn, `CN(C)Cc1c[nH]c2c(C(=O)c3ccccc3)cccc12` returned a melting point of 111 to 114 °C.

Molecule `CCCCNC(=O)n1cc[nH]c1=S` yielded a melting point of 66 to 68 °C.

Consider `Cc1nc(-c2ccc(OCC(C)C)c(C=O)c2)sc1C(=O)O`, for which the melting point was in the range of 213 to 217 °C.

`CO/C=C(/C(=O)OC)c1cccnc1Oc1cccc(C=O)c1` had a melting point of 84 to 86 °C.

Consider `COc1cc2ncnc(N3CCN(C(=O)NCc4ccc(C(C)C)cc4)CC3)c2cc1OC`, for which the melting point was in the range of 135 to 136 °C.

Consider `CNc1nc(-c2ccccc2)c(-c2nc3ccccc3c(=O)n2-c2ccc(OC)cc2)s1`, for which the melting point is 235 to 236 °C.

Consider `CCOC(=O)N(C)CCCC1=CC2(CCCC2)c2ccccc21`, for which the melting point was 90 °C.

`O=C(c1cccs1)c1cccc(O)c1C(=O)O`: the melting point was in the range of 168 to 170 °C.

The molecule `COc1ccc(Cn2ncnc2CO)cc1` displayed a melting point of 95 to 100 °C.

The molecule `CCOc1ccc2c(c1)C(C)(c1ccccc1O)C(=O)N2S(=O)(=O)c1ccc(C(=O)NC(C)(C)C)cc1` (centres undefined) had a melting point of 180 °C.

Consider `CC1(C)CCOc2c(CC#Cc3ccc(C(=O)O)c(O)c3)cccc21`, for which the melting point lay within 182 to 183 °C.

Molecule `O=C(/C=C/c1ccn(S(=O)(=O)c2ccc(-c3ccccn3)s2)c1)NO` registered a melting point of 181 to 182 °C.

`CCCCCCCCCCCCC(C)(C)NC(=O)Nc1ccccc1C(=O)NC1CCN(C(c2ccccc2)c2ccccc2)CC1` came in with a melting point of 146 to 148 °C.

In the case of `N#Cc1nn(-c2c(Cl)cc(C(F)(F)F)cc2Cl)cc1C=O`, the melting point stood at 168 °C.

In the case of `COc1cc(OC)c2c(c1)OC(C)(C)CC2=O`, the melting point was in the range of 104 to 105 °C.

Molecule `COC(CNC1=Nc2ccccc2Nc2ccccc21)OC` registered a melting point of 181 to 182 °C.

With `c1cc(-c2n[nH]c3c2Cc2ccc(CN4CCCC4)cc2-3)cs1`, the melting point is 133 to 134 °C.

For `O=C(O)Cc1cccc(Oc2cccc(Cl)c2Cl)c1[N+](=O)[O-]`, the melting point was in the range of 178 to 183 °C.

With `CCC(=O)Oc1ccc2c(c1)C(=O)N(C(=O)CC)C(C(Cl)(Cl)Cl)O2` (centres undefined), the melting point is 92 to 94 °C.

In turn, `CC(C)(C)c1ccc(CCC(O)CCC2CCCCCC2)cc1NC(=O)CC1c2ccccc2Oc2ccccc21` (centres undefined) returned a melting point of 146 to 147 °C.

For `O=[N+]([O-])c1c(F)cc(Cl)c2nc(Cl)sc12`, the melting point was in the range of 110 to 112 °C.

`CC(=O)CCC(=O)c1ccc(S(C)(=O)=O)cc1` registered a melting point of 132 to 133 °C.

`CC(CN1CC=C(c2ccc(Cl)cc2)CC1)C(O)c1ccc(Cl)cc1` (centres undefined) showed a melting point of 110 to 112 °C.

`COc1ccccc1C(OC)c1cccnn1` (centres undefined) returned a melting point of 110 to 111 °C.

Molecule `COc1ccc(C(=O)[C@H]2CC=CC[C@H]2C(=O)O)cc1OC` (relative stereo) had a melting point of 110 to 112 °C.

In the case of `N=C(Nc1ccc2c(c1)C1CCCN1CC2)c1cccs1` (centres undefined), the melting point is 193 to 196 °C.

For the molecule `C=CCCC(C#N)(C#N)Cc1ccc(OC(C)=O)cc1`, the melting point came out at 80.2 °C.

`O=C(O)CCCCCc1ccc2ccccc2n1` registered a melting point of 105 to 108 °C.

For `CCCCCN1CC[C@@H](c2ccccc2Cl)[C@H](CO)C1` (racemic), the melting point was in the range of 101 to 102 °C.

For `CN1C(c2ccc(F)cc2)=NC(C(F)(F)F)(C(F)(F)F)C1NC(=O)c1ccc(N2CCCCC2)cc1` (centres undefined), the melting point is 128 to 129 °C.

`c1ccc(-c2n[nH]c3c2Cc2ccccc2-3)cc1` came in with a melting point of 234 to 236 °C.

With `COC1COC(c2ccccc2)OC1` (centres undefined), the melting point was 51 °C.

For the molecule `O=C(CCl)COc1cccc(C(F)(F)F)c1`, the melting point lay within 38 to 39 °C.
